According to the supplement of paper PMC4862054:

Experiments:
Details in all cases: incubation time: 72 h
[1] = tested on: HDQ-P1; assay: normalised response (% of control), CellTox Green; higher = less cell death (100 = DMSO, 0 = benzethonium chloride kill control)
Procedure, shortened: (§1)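 After 72 h with compound in 384-well plates, breast cancer cell lines seeded as 20 µl suspension were read for CellTox Green fluorescence at 485/520 nm. CellTiter-Glo luminescence was then read after 10 min at room temperature. Compound was present at 5 concentrations in 10-fold steps over a 10,000-fold range set per compound, and plates were normalised to 0.1 % DMSO (100) and a positive kill control (0). Values are normalised signals, each at a single concentration.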

[2] = tested on: MDA-MB-436; assay: as above
Procedure, shortened: as §1

[3] = tested on: MFM-223; assay: as above
Procedure, shortened: as §1

[4] = tested on: BT-474; assay: as above
Procedure, shortened: as §1

[5] = tested on: CAL-85-1; assay: as above
Procedure, shortened: as §1

[6] = tested on: BT-549; assay: as above
Procedure, shortened: as §1

[7] = tested on: CAL-148; assay: as above
Procedure, shortened: as §1

[8] = tested on: MDA-MB-453; assay: as above
Procedure, shortened: as §1

[9] = tested on: MDA-MB-231; assay: as above
Procedure, shortened: as §1

[10] = tested on: HCC1599; assay: as above
Procedure, shortened: as §1

[11] = tested on: CAL-120; assay: as above
Procedure, shortened: as §1

[12] = tested on: CAL-51; assay: as above
Procedure, shortened: as §1

[13] = tested on: MDA-MB-468; assay: as above
Procedure, shortened: as §1

[14] = tested on: MCF-10A; assay: as above
Procedure, shortened: as §1

[15] = tested on: DU-4475; assay: as above
Procedure, shortened: as §1

[16] = tested on: Hs578T; assay: as above
Procedure, shortened: as §1

[17] = tested on: HCC1143; assay: as above
Procedure, shortened: as §1

[18] = tested on: HDQ-P1; assay: normalised response (% of control), CellTiter-Glo; higher = more viable cells (100 = DMSO, 0 = benzethonium chloride kill control)
Procedure, shortened: as §1

[19] = tested on: MDA-MB-436; assay: as above
Procedure, shortened: as §1

[20] = tested on: MFM-223; assay: as above
Procedure, shortened: as §1

[21] = tested on: BT-474; assay: as above
Procedure, shortened: as §1

[22] = tested on: CAL-85-1; assay: as above
Procedure, shortened: as §1

[23] = tested on: BT-549; assay: as above
Procedure, shortened: as §1

[24] = tested on: CAL-148; assay: as above
Procedure, shortened: as §1

[25] = tested on: MDA-MB-453; assay: as above
Procedure, shortened: as §1

[26] = tested on: MDA-MB-231; assay: as above
Procedure, shortened: as §1

[27] = tested on: HCC1599; assay: as above
Procedure, shortened: as §1

[28] = tested on: CAL-120; assay: as above
Procedure, shortened: as §1

[29] = tested on: CAL-51; assay: as above
Procedure, shortened: as §1

[30] = tested on: MDA-MB-468; assay: as above
Procedure, shortened: as §1

[31] = tested on: MCF-10A; assay: as above
Procedure, shortened: as §1

[32] = tested on: DU-4475; assay: as above
Procedure, shortened: as §1

[33] = tested on: HCC1937; assay: as above
Procedure, shortened: as §1

[34] = tested on: SK-BR-3; assay: as above
Procedure, shortened: as §1

[35] = tested on: Hs578T; assay: as above
Procedure, shortened: as §1

[36] = tested on: HCC1143; assay: as above
Procedure, shortened: as §1

[37] = tested on: HCC1937; assay: normalised response (% of control), CellTox Green; higher = less cell death (100 = DMSO, 0 = benzethonium chloride kill control)
Procedure, shortened: as §1

Row | SMILES | normalised response [1] | normalised response [2] | normalised response [3] | normalised response [4] | normalised response [5] | normalised response [6] | normalised response [7] | normalised response [8] | normalised response [9] | normalised response [10] | normalised response [11] | normalised response [12] | normalised response [13] | normalised response [14] | normalised response [15] | normalised response [16] | normalised response [17] | normalised response [18] | normalised response [19] | normalised response [20] | normalised response [21] | normalised response [22] | normalised response [23] | normalised response [24] | normalised response [25] | normalised response [26] | normalised response [27] | normalised response [28] | normalised response [29] | normalised response [30] | normalised response [31] | normalised response [32] | normalised response [33] | normalised response [34] | normalised response [35] | normalised response [36] | normalised response [37]
1 | CC1(C)CCC(CN2CCN(c3ccc(C(=O)NS(=O)(=O)c4ccc(NCC5CCOCC5)c([N+](=O)[O-])c4)c(Oc4cnc5[nH]ccc5c4)c3)CC2)=C(c2ccc(Cl)cc2)C1 [ABT-199] (1000 nM) | 104% | 85% | 99.2% | 99.9% | 102% | 76.5% | 71.6% | 99.2% | 102% | 92.1% | 89.8% | 87.8% | 66.1% | 112% | 98% | 105% | 74.1% | 97.4% | 94.8% | 94.5% | 95.4% | 96.9% | 101% | 105% | 102% | 99.3% | 105% | 99.5% | 69.8% | 93.6% | 96.9% | 90.6% | 103% | 107% | 98.7% | 101% | –
2 | CC(=O)N(O)CCCCCNC(=O)CCC(=O)N(O)CCCCCNC(=O)CCC(=O)N(O)CCCCCN [Deferoxamine] (1000 nM) | 106% | 73.7% | 70.8% | 96.8% | 110% | 102% | 2.01% | 100% | 96.7% | 96.7% | 96.8% | 91.1% | 143% | 79.7% | 97.5% | 97.3% | 82.2% | 93.6% | 87.4% | 89.5% | 90.9% | 102% | 72.7% | 59.6% | 84.2% | 86.8% | 98.2% | 96.1% | 88.7% | 63.3% | 97.7% | 85.8% | 76.8% | 84.2% | 96.8% | 79.5% | -39.7%
